The data set can be described thus: Dynamic vapor sorption (DVS) analysis. The format is physicochemical.

The values that follow come from patent US20260108483A1, “METHODS AND COMPOSITIONS FOR PREVENTING THE PROGRESSION OF DIABETIC RETINOPATHY AND RELATED CONDITIONS” (Opus Genetics, Inc., priority 2023, published 2026).

Structures are written as SMILES. Structures can show the parent of a compound that is named as a salt.

Consider `CCCCCCCCC/C(=C\C1=C(C)C(=O)C(OC)=C(OC)C1=O)C(=O)O` [Compound 1 calcium salt], for which the “maximum water adsorption (DVS)” value (at 82% RH) was “about 1.52%”. The “water retained at the end of the desorption branch (DVS)” value (end of desorption) is listed as 0.19%. In addition, the “crystalline form of post-DVS sample (XRPD) versus pre-DVS sample” value (subsequent XRPD analysis after DVS) is on record as “maintained the same crystalline form”.
